According to ChEMBL document CHEMBL1201862, “PubChem BioAssay data set” (2004):
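Protocol summary: plate cells (96-well), add compound at 5 concentrations, incubate 48 h, interpolate endpoints linearly. The concentration for 50% growth inhibition is given as GI50.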 Activity calls are given as the source filed them. Rule as the data show it: active = GI50 up to about 1.1 µM and inactive = higher.

Assays:
Test in all cases: NCI tumour cell line growth inhibition, 48 h
786-0 = tested on: 786-0
EKVX = tested on: EKVX
HCC 2998 = tested on: HCC 2998
HL-60 = tested on: HL-60
K562 = tested on: K562
MOLT-4 = tested on: MOLT-4
NCI-H23 = tested on: NCI-H23
OVCAR-5 = tested on: OVCAR-5
OVCAR-8 = tested on: OVCAR-8
SK-MEL-28 = tested on: SK-MEL-28
SK-OV-3 = tested on: SK-OV-3
SW-620 = tested on: SW-620
UACC-62 = tested on: UACC-62
UO-31 = tested on: UO-31
U-251 = tested on: U-251

Measured: GI50

COc1ccc(-c2cc(O)c3cc(Cl)ccc3n2)cc1
inactive: 786-0 > 100 µM | EKVX > 100 µM | HCC 2998 > 100 µM | HL-60 > 100 µM | K562 > 100 µM | MOLT-4 > 100 µM | NCI-H23 > 100 µM | OVCAR-5 > 100 µM | OVCAR-8 > 100 µM | SK-MEL-28 > 100 µM | SK-OV-3 > 100 µM | SW-620 > 100 µM | UACC-62 > 100 µM | UO-31 > 100 µM

CN1c2ccccc2N(C)C23N(C)c4ccccc4N(C)C12N(C)c1ccccc1N3C (centres undefined)
inactive: 786-0 > 100 µM | EKVX > 100 µM | HCC 2998 > 100 µM | HL-60 > 100 µM | K562 > 100 µM | MOLT-4 > 100 µM | NCI-H23 > 100 µM | OVCAR-5 > 100 µM | OVCAR-8 > 100 µM | SK-MEL-28 > 100 µM | SW-620 > 100 µM | U-251 > 100 µM | UACC-62 > 100 µM | UO-31 > 100 µM

CCC12CCC(O)C1N(C)CCC2Sc1ccccc1 (centres undefined)
inactive: 786-0 > 100 µM | EKVX > 100 µM | HCC 2998 29.9 µM | HL-60 22.9 µM | K562 37.4 µM | MOLT-4 28.5 µM | NCI-H23 > 100 µM | OVCAR-8 > 100 µM | SK-MEL-28 75.3 µM | SK-OV-3 > 100 µM | SW-620 > 100 µM | U-251 78.2 µM | UACC-62 > 100 µM | UO-31 28.8 µM

O=C1C2C3C=CC(C2C(=O)N1CO)C1C2C(=O)N(CO)C(=O)C2C31 (centres undefined)
inactive: 786-0 > 44 µM | EKVX > 100 µM | HCC 2998 > 100 µM | K562 > 48.6 µM | MOLT-4 74.1 µM | NCI-H23 > 100 µM | OVCAR-5 > 100 µM | OVCAR-8 36.4 µM | SK-MEL-28 > 84.1 µM | SK-OV-3 > 100 µM | SW-620 33.5 µM | U-251 > 67.1 µM | UACC-62 > 100 µM | UO-31 > 100 µM

CC(C)OP(=O)(OC(C)C)/C(=N/Nc1ccc([N+](=O)[O-])cc1)NN
inactive: 786-0 > 100 µM | EKVX 61.9 µM | HCC 2998 > 100 µM | HL-60 > 100 µM | K562 65.9 µM | MOLT-4 61.9 µM | NCI-H23 55.2 µM | OVCAR-5 > 100 µM | OVCAR-8 > 100 µM | SK-MEL-28 > 100 µM | SW-620 > 100 µM | U-251 > 100 µM | UACC-62 34.4 µM | UO-31 88.5 µM

COc1ccc(/C(Cl)=C(\C=O)c2ccc(Cl)cc2)cc1
inactive: EKVX 5.07 µM | HCC 2998 23.2 µM | HL-60 3.46 µM | K562 3.81 µM | MOLT-4 2.63 µM | NCI-H23 3.56 µM | OVCAR-5 57.5 µM | OVCAR-8 4.41 µM | SK-OV-3 40.9 µM | SW-620 4.12 µM | U-251 3.79 µM | UACC-62 10.1 µM | UO-31 4.71 µM

[O-]/N=[N+](/[O-])C1CCCCC1=[N+]1CCOCC1 (centres undefined)
inactive: 786-0 > 100 µM | EKVX > 100 µM | HL-60 > 100 µM | K562 > 100 µM | MOLT-4 > 100 µM | NCI-H23 > 100 µM | OVCAR-5 > 100 µM | OVCAR-8 > 100 µM | SK-MEL-28 > 100 µM | SK-OV-3 > 100 µM | SW-620 > 100 µM | U-251 > 100 µM | UACC-62 > 100 µM | UO-31 > 100 µM

COC(=O)c1cc(CC(C)C)c2c(c1)[nH]c1ccccc12
inactive: 786-0 > 100 µM | EKVX > 100 µM | HCC 2998 70.8 µM | K562 15.9 µM | MOLT-4 34 µM | NCI-H23 49 µM | OVCAR-5 > 100 µM | OVCAR-8 > 100 µM | SK-MEL-28 > 100 µM | SK-OV-3 > 100 µM | SW-620 47.2 µM | U-251 > 100 µM | UACC-62 96.8 µM | UO-31 > 100 µM

Cc1ccc(NCC2(/N=C/c3ccccc3)OC(CO)C(O)C2O)cc1 (centres undefined)
inactive: 786-0 49.5 µM | HCC 2998 91.2 µM | HL-60 20.5 µM | K562 27.9 µM | MOLT-4 40.1 µM | NCI-H23 54.1 µM | OVCAR-5 > 100 µM | OVCAR-8 > 100 µM | SK-MEL-28 62.5 µM | SW-620 36.7 µM | U-251 24.2 µM | UACC-62 54.1 µM | UO-31 61.7 µM

CNc1ccc2ncccc2c1[N+](=O)[O-]
inactive: 786-0 > 100 µM | EKVX > 100 µM | HCC 2998 > 100 µM | HL-60 > 100 µM | K562 > 100 µM | MOLT-4 > 100 µM | NCI-H23 > 100 µM | OVCAR-5 > 100 µM | OVCAR-8 > 100 µM | SK-MEL-28 > 100 µM | SW-620 > 100 µM | UACC-62 > 100 µM | UO-31 > 100 µM

Nc1ccn(CC(CO)CC(c2ccccc2)P(=O)(O)O)c(=O)n1 (centres undefined)
inactive: 786-0 > 100 µM | EKVX > 100 µM | HCC 2998 > 100 µM | HL-60 > 100 µM | K562 > 100 µM | MOLT-4 > 100 µM | NCI-H23 > 100 µM | OVCAR-5 > 100 µM | OVCAR-8 > 100 µM | SK-MEL-28 > 100 µM | SK-OV-3 > 100 µM | SW-620 > 100 µM | UACC-62 > 100 µM | UO-31 > 100 µM

CCOC(=O)C(=O)Nc1c(CC)cccc1C(C)C
inactive: 786-0 > 100 µM | EKVX > 100 µM | HCC 2998 > 100 µM | NCI-H23 > 100 µM | OVCAR-5 > 100 µM | OVCAR-8 > 100 µM | SK-MEL-28 > 100 µM | SK-OV-3 > 100 µM | SW-620 > 100 µM | U-251 > 100 µM | UACC-62 > 100 µM | UO-31 > 100 µM

O=[N+]([O-])c1nccn1COCCF
inactive: 786-0 > 100 µM | EKVX > 100 µM | HL-60 > 100 µM | K562 > 100 µM | MOLT-4 > 100 µM | NCI-H23 > 100 µM | OVCAR-5 > 100 µM | OVCAR-8 > 100 µM | SK-MEL-28 > 100 µM | SK-OV-3 > 100 µM | SW-620 > 100 µM | U-251 > 100 µM | UACC-62 > 100 µM | UO-31 > 100 µM

COc1ccc(-c2ccccc2)c(N/N=C2\CCCNC2=O)c1
inactive: 786-0 85.7 µM | EKVX > 100 µM | HCC 2998 > 100 µM | MOLT-4 > 100 µM | NCI-H23 > 100 µM | OVCAR-5 > 100 µM | OVCAR-8 > 100 µM | SK-MEL-28 > 100 µM | SK-OV-3 96.2 µM | SW-620 > 100 µM | U-251 > 100 µM | UACC-62 49 µM | UO-31 > 100 µM

COC(=O)C1=C(C[S+]([O-])c2ccccc2[N+](=O)[O-])ON(C)C1c1ccccc1 (centres undefined)
inactive: 786-0 40.6 µM | EKVX 55.6 µM | HCC 2998 15.8 µM | HL-60 17.4 µM | K562 22.4 µM | MOLT-4 31 µM | NCI-H23 > 100 µM | OVCAR-5 > 100 µM | OVCAR-8 21.3 µM | SK-OV-3 > 100 µM | SW-620 25.4 µM | U-251 34.4 µM | UACC-62 28.8 µM | UO-31 46.8 µM
